# Measured values from patent US4409210A, “Antibiotic compound” (priority 1982, dated 1983).
# *1 amine or outer side, *2 acyl side, *3 side chain or, on linkers, in order; H or OH if unused. Where a SMILES comes first, the peptide text is derived from it. Bridges are numbered along the chain shown (N, C = ends). [ ]: non-standard residue; d: D form. ξ: configuration not given here. X2 = CCCCCCCCCCCC(CC(=O)[*:1])O[*:2]; ξAsp(3ξ-OH) = NC(C(=O)O)C(O)C(=O)O; X1 = O=C(C1C(O)CCN1[*:1])[*:2]
# Legend:
# Type in all cases: cell-based
# Proteus vulgaris A9436 = test: MIC, serial two-fold dilution method (aerobic)
# [1] = system: Staphylococcus aureus 209P; test: MIC, serial two-fold dilution method (aerobic)
# [2] = system: Bacillus anthracis IID-115; test: microbe, parasite or virus in culture
# [3] = system: Streptococcus pyogenes Dick; test: MIC, serial two-fold dilution method (aerobic)
# [4] = system: Staphylococcus aureus Smith; test: MIC, serial two-fold dilution method (aerobic)
# [5] = system: Neisseria gonorrhoeae A15112; test: MIC, serial two-fold dilution method (aerobic)
# [6] = system: Fusobacterium necrophorum A20013; test: MIC, serial two-fold dilution method (anaerobic)
# [7] = system: Bacteroides fragilis A22695; test: MIC, serial two-fold dilution method (anaerobic)
# [8] = system: Bacteroides fragilis A22053; test: MIC, serial two-fold dilution method (anaerobic)
# Escherichia coli NIHJ = test: MIC, serial two-fold dilution method (aerobic)
# [9] = system: Haemophilus influenzae A9729; test: MIC, serial two-fold dilution method (aerobic)
# [10] = system: Clostridium acidiurici A9560; test: MIC, serial two-fold dilution method (anaerobic)
# [11] = system: Bacteroides fragilis CUH-24; test: MIC, serial two-fold dilution method (anaerobic)
# [12] = system: Peptococcus magnas A21676; test: MIC, serial two-fold dilution method (anaerobic)
# [13] = system: Bacteroides fragilis A22533; test: MIC, serial two-fold dilution method (anaerobic)
# Micrococcus flavus D-12 = test: MIC, serial two-fold dilution method (aerobic)
# [14] = system: Staphylococcus aureus A22421; test: MIC, serial two-fold dilution method (aerobic)
# [15] = system: Bacteroides fragilis A20929; test: MIC, serial two-fold dilution method (anaerobic)
# [16] = system: Fusobacterium nucleatum A21906; test: MIC, serial two-fold dilution method (anaerobic)
# [17] = system: Clostridium ramosum A21970; test: MIC, serial two-fold dilution method (anaerobic)
# [18] = system: Bacteroides fragilis A20928-1; test: MIC, serial two-fold dilution method (anaerobic)
# [19] = system: Clostridium difficile A21675; test: MIC, serial two-fold dilution method (anaerobic)
# Experimental: (§1) The minimum inhibitory concentration (MIC) of Bu-2517 was determined for a variety of aerobic and anaerobic bacteria by the serial two-fold dilution method using a multi-inoculating apparatus. Mueller-Hinton agar was generally used for aerobic bacteria, GC medium (Eiken) for fastidious aerobic organisms such as streptococci, Neisseria and Haemophilus species, and GAM agar medium (Nissui) for anaerobic bacteria. The inoculum size was adjusted to 10^6 CFU/ml for streptococci, Neisseria and Haemophilus species, 10^4 for other aerobic bacteria and 10^7 -10^8 for all anaerobic organisms. Amphomycin, ampicillin, chloramphenicol, clindamycin, erthromycin, kanamycin and vancomycin were used as reference antibiotics.
# [20] = system: Clostridium septicum A21869; test: MIC, serial two-fold dilution method (anaerobic)
# Experimental: as §1
# [21] = system: Clostridium chauvoei A9561; test: MIC, serial two-fold dilution method (anaerobic)
# Experimental: as §1
# [22] = system: Clostridium difficile A21972; test: MIC, serial two-fold dilution method (anaerobic)
# Experimental: as §1
smiles,measurement,setting,value
CN[C@H](CC(C)C)C(=O)N[C@H]1C(=O)N[C@@H](CC(N)=O)C(=O)N[C@H]2C(=O)N[C@H]3C(=O)N[C@H](C(=O)N[C@H](C(=O)O)c4cc(O)cc(O)c4-c4cc3ccc4O)[C@H](O)c3ccc(c(Cl)c3)Oc3cc2cc(c3O[C@@H]2O[C@H](CO)[C@@H](O)[C@H](O)[C@H]2O[C@H]2C[C@](C)(N)[C@H](O)[C@H](C)O2)Oc2ccc(cc2Cl)[C@H]1O [Vancomycin],MIC,"Proteus vulgaris A9436; Proteus vulgaris, A9436, read-out: minimum inhibitory concentration (MIC)",> 100 µg/mL
same,MIC,"[1]; Staphylococcus aureus, 209P, read-out: minimum inhibitory concentration (MIC)",0.4 µg/mL
same,MIC,"[2]; Bacillus anthracis, IID115, read-out: minimum inhibitory concentration (MIC)",1.6 µg/mL
same,MIC,"[3]; Streptococcus pyogenes, read-out: minimum inhibitory concentration (MIC)",0.8 µg/mL
same,MIC,"[4]; Staphylococcus aureus, read-out: minimum inhibitory concentration (MIC)",0.8 µg/mL
same,MIC,"[5]; Neisseria gonorrhoeae, A15112, read-out: minimum inhibitory concentration (MIC)",> 100 µg/mL
same,MIC,"[6]; Fusobacterium necrophorum, A20013, read-out: minimum inhibitory concentration (MIC)",> 100 µg/mL
same,MIC,"[7]; Bacteroides fragilis, A22695, read-out: minimum inhibitory concentration (MIC)",25 µg/mL
same,MIC,"[8]; Bacteroides fragilis, A22053, read-out: minimum inhibitory concentration (MIC)",50 µg/mL
same,MIC,"Escherichia coli NIHJ; Escherichia coli, read-out: minimum inhibitory concentration (MIC)",> 100 µg/mL
same,MIC,"[9]; Haemophilus influenzae, A9729, read-out: minimum inhibitory concentration (MIC)",> 100 µg/mL
same,MIC,"[10]; Gottschalkia acidurici, A9560, read-out: minimum inhibitory concentration (MIC)",0.8 µg/mL
same,MIC,"[11]; Bacteroides fragilis, CUH24, read-out: minimum inhibitory concentration (MIC)",25 µg/mL
same,MIC,[12]; read-out: minimum inhibitory concentration (MIC),< 0.05 µg/mL
same,MIC,"[13]; Bacteroides fragilis, A22533, read-out: minimum inhibitory concentration (MIC)",50 µg/mL
same,MIC,"Micrococcus flavus D-12; Micrococcus flavus, D12, read-out: minimum inhibitory concentration (MIC)",0.2 µg/mL
same,MIC,"[14]; Staphylococcus aureus, A22421, read-out: minimum inhibitory concentration (MIC)",0.8 µg/mL
same,MIC,"[15]; Bacteroides fragilis, A20929, read-out: minimum inhibitory concentration (MIC)",0.8 µg/mL
same,MIC,"[16]; Fusobacterium nucleatum, A21906, read-out: minimum inhibitory concentration (MIC)",0.8 µg/mL
same,MIC,"[17]; Thomasclavelia ramosa, A21970, read-out: minimum inhibitory concentration (MIC)",> 100 µg/mL
same,MIC,"[18]; Bacteroides fragilis, A209281, read-out: minimum inhibitory concentration (MIC)",3.1 µg/mL
same,MIC,"[19]; Clostridioides difficile, A21675, read-out: minimum inhibitory concentration (MIC)",0.8 µg/mL
same,MIC,"[20]; Clostridium septicum, A21869, read-out: minimum inhibitory concentration (MIC)",0.8 µg/mL
same,MIC,"[21]; Clostridium chauvoei, A9561, read-out: minimum inhibitory concentration (MIC)",0.8 µg/mL
same,MIC,"[22]; Clostridioides difficile, A21972, read-out: minimum inhibitory concentration (MIC)",1.6 µg/mL
CCCCCCCCCCCC1CC(=O)N2CCCC2C(=O)NC(CO)C(=O)N2CCCC2C(=O)NC(CCCNC(=N)N)C(=O)NC(C(O)C(=O)O)C(=O)NC(CO)C(=O)N2CCC(O)C2C(=O)NC(C(O)C(=O)O)C(=O)O1 (centres unmarked) [Bu-2517] (PSPR[ξAsp(3ξ-OH)]S[X1][ξAsp(3ξ-OH)]; linker N-C via X2; configuration not given here),minimum inhibitory concentration (MIC),"Proteus vulgaris A9436; Proteus vulgaris A9436, Mueller-Hinton agar, inoculum 10^4",> 100 µg/mL
same,minimum inhibitory concentration (MIC),"[1]; Staphylococcus aureus 209P, Mueller-Hinton agar, inoculum 10^4",1.6 µg/mL
same,minimum inhibitory concentration (MIC),"[2]; Bacillus anthracis IID-115, Mueller-Hinton agar, inoculum 10^4",0.8 µg/mL
same,minimum inhibitory concentration (MIC),"[3]; Streptococcus pyogenes Dick, GC medium, inoculum 10^6 CFU/ml",1.6 µg/mL
same,minimum inhibitory concentration (MIC),"[4]; Staphylococcus aureus Smith, Mueller-Hinton agar, inoculum 10^4",1.6 µg/mL
same,minimum inhibitory concentration (MIC),"[5]; Neisseria gonorrhoeae A15112, GC medium, inoculum 10^6 CFU/ml",> 100 µg/mL
same,minimum inhibitory concentration (MIC),"[6]; Fusobacterium necrophorum A20013, GAM agar medium, inoculum 10^7-10^8",> 100 µg/mL
same,minimum inhibitory concentration (MIC),"[7]; Bacteroides fragilis A22695, GAM agar medium, inoculum 10^7-10^8",> 100 µg/mL
same,minimum inhibitory concentration (MIC),"[8]; Bacteroides fragilis A22053, GAM agar medium, inoculum 10^7-10^8",> 100 µg/mL
same,minimum inhibitory concentration (MIC),"Escherichia coli NIHJ; Escherichia coli NIHJ, Mueller-Hinton agar, inoculum 10^4",> 100 µg/mL
same,minimum inhibitory concentration (MIC),"[9]; Haemophilus influenzae A9729, GC medium, inoculum 10^6 CFU/ml",> 100 µg/mL
same,minimum inhibitory concentration (MIC),"[10]; Clostridium acidiurici A9560, GAM agar medium, inoculum 10^7-10^8",1.6 µg/mL
same,minimum inhibitory concentration (MIC),"[11]; Bacteroides fragilis CUH-24, GAM agar medium, inoculum 10^7-10^8",> 100 µg/mL
same,minimum inhibitory concentration (MIC),"[12]; Peptococcus magnas A21676, GAM agar medium, inoculum 10^7-10^8",1.6 µg/mL
same,minimum inhibitory concentration (MIC),"[13]; Bacteroides fragilis A22533, GAM agar medium, inoculum 10^7-10^8",> 100 µg/mL
same,minimum inhibitory concentration (MIC),"Micrococcus flavus D-12; Micrococcus flavus D-12, Mueller-Hinton agar, inoculum 10^4",< 0.05 µg/mL
same,minimum inhibitory concentration (MIC),"[14]; Staphylococcus aureus A22421, Mueller-Hinton agar, inoculum 10^4",0.8 µg/mL
same,minimum inhibitory concentration (MIC),"[15]; Bacteroides fragilis A20929, GAM agar medium, inoculum 10^7-10^8",3.1 µg/mL
same,minimum inhibitory concentration (MIC),"[16]; Fusobacterium nucleatum A21906, GAM agar medium, inoculum 10^7-10^8",12.5 µg/mL
same,minimum inhibitory concentration (MIC),"[17]; Clostridium ramosum A21970, GAM agar medium, inoculum 10^7-10^8",1.6 µg/mL
same,minimum inhibitory concentration (MIC),"[18]; Bacteroides fragilis A20928-1, GAM agar medium, inoculum 10^7-10^8",25 µg/mL
same,minimum inhibitory concentration (MIC),"[19]; Clostridium difficile A21675, GAM agar medium, inoculum 10^7-10^8",1.6 µg/mL
same,minimum inhibitory concentration (MIC),"[20]; Clostridium septicum A21869, GAM agar medium, inoculum 10^7-10^8",1.6 µg/mL
same,minimum inhibitory concentration (MIC),"[21]; Clostridium chauvoei A9561, GAM agar medium, inoculum 10^7-10^8",3.1 µg/mL
same,minimum inhibitory concentration (MIC),"[22]; Clostridium difficile A21972, GAM agar medium, inoculum 10^7-10^8",1.6 µg/mL
